In the supplement of paper PMC10307832:

Assays:
Assay in all cases: relative viability (nuclei count vs DMSO), 5 days (fraction); higher = more cells survive
Axitinib + Decitabine = compound: CNC(=O)c1ccccc1Sc1ccc2c(/C=C/c3ccccn3)n[nH]c2c1 [Axitinib] + Nc1ncn([C@H]2C[C@H](O)[C@@H](CO)O2)c(=O)n1 [Decitabine] (partner 2 µM)
Outline: (§1)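 Cells from lung cancer lines were seeded into 1536-well plates and, one day later, dosed by pin tool. Treatments were either a single drug or a fixed dose of an anchor drug with five library-drug doses (not always all listed) in √10 steps. After 5 days, nuclei were stained in a one-step fixation (final 0.05% Triton X-100, 1% formaldehyde, 1 ug/ml Hoechst) and counted on 4× images, and relative viability is the treated-to-vehicle nuclei ratio, as the median of duplicate plates.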

Axitinib + Foretinib = compound: CNC(=O)c1ccccc1Sc1ccc2c(/C=C/c3ccccn3)n[nH]c2c1 [Axitinib] + COc1cc2c(Oc3ccc(NC(=O)C4(C(=O)Nc5ccc(F)cc5)CC4)cc3F)ccnc2cc1OCCCN1CCOCC1 [Foretinib] (partner 0.25 µM)
Outline: as §1

Bemcentinib + Alpelisib = compound: Nc1nc(Nc2ccc3c(c2)CC[C@@H](N2CCCC2)CC3)nn1-c1cc2c(nn1)-c1ccccc1CCC2 [Bemcentinib] + Cc1nc(NC(=O)N2CCC[C@H]2C(N)=O)sc1-c1ccnc(C(C)(C)C(F)(F)F)c1 [Alpelisib] (partner 2 µM)
Outline: as §1

[1] = compound: CC1=CC=C(C=C1)C(=O)CN2C3=C(CCCC3)SC2=N [Pifithrin_alpha] + C[C@]1(O)C[C@@H](c2nc(-c3ccc4ccc(-c5ccccc5)nc4c3)c3c(N)nccn32)C1 [Linsitinib] (partner 1 µM)
Outline: as §1

| Cell Line | relative viability (Axitinib + Decitabine; first compound 0.005 µM) | relative viability (Axitinib + Decitabine; first compound 0.01581 µM) | relative viability (Axitinib + Decitabine; first compound 0.05 µM) | relative viability (Axitinib + Decitabine; first compound 0.1581 µM) | relative viability (Axitinib + Decitabine; first compound 0.5 µM) | relative viability (Axitinib + Foretinib; first compound 0.005 µM) | relative viability (Axitinib + Foretinib; first compound 0.01581 µM) | relative viability (Axitinib + Foretinib; first compound 0.05 µM) | relative viability (Axitinib + Foretinib; first compound 0.1581 µM) | relative viability (Axitinib + Foretinib; first compound 0.5 µM) | relative viability (Bemcentinib + Alpelisib; first compound 0.04 µM) | relative viability (Bemcentinib + Alpelisib; first compound 0.1265 µM) | relative viability (Bemcentinib + Alpelisib; first compound 0.4 µM) | relative viability (Bemcentinib + Alpelisib; first compound 1.265 µM) | relative viability (Bemcentinib + Alpelisib; first compound 4 µM) | relative viability ([1]; first compound 1 µM) | relative viability ([1]; first compound 3.162 µM) | relative viability ([1]; first compound 10 µM) | relative viability ([1]; first compound 31.62 µM) | relative viability ([1]; first compound 100 µM) |
| --- | --- | --- | --- | --- | --- | --- | --- | --- | --- | --- | --- | --- | --- | --- | --- | --- | --- | --- | --- | --- |
| LC-2-ad | 0.829 | 0.776 | 0.855 | 0.804 | 0.779 | 0.871 | 0.891 | 0.917 | 0.761 | 0.959 | 0.877 | 0.969 | 0.907 | 0.822 | 0.852 | 0.849 | 0.846 | 0.804 | 0.547 | 0.767 |
| HCC-78 | 0.69 | 0.577 | 0.806 | 0.698 | 0.653 | 0.582 | 0.536 | 0.512 | 0.6 | 0.548 | 0.246 | 0.322 | 0.336 | 0.39 | 0.33 | 0.481 | 0.54 | 0.513 | – | 0.584 |
| NCI-H322M | 0.715 | 0.667 | 0.673 | 0.675 | 0.686 | 1.18 | 0.926 | 0.922 | 0.859 | 1.12 | 0.897 | 0.864 | 0.855 | 0.85 | 0.937 | 0.85 | 0.898 | 0.902 | 0.821 | 1.04 |
| NCI-H1651 | 0.576 | 0.579 | 0.611 | 0.619 | 0.594 | 0.879 | 0.896 | 0.876 | 0.878 | 0.859 | 0.935 | 1.01 | 1.12 | 0.964 | 1.02 | 0.997 | 1.13 | 0.892 | 0.709 | 1.02 |
| NCI-H1437 | 0.608 | 0.594 | 0.555 | 0.59 | 0.561 | 1.3 | 1.22 | 1.28 | 1.13 | 1.25 | 0.961 | 1.03 | 1.16 | 1.01 | 1.01 | 1.14 | 1.24 | 0.893 | 0.564 | 0.54 |
| A549 | 0.324 | 0.296 | 0.338 | 0.243 | 0.324 | 0.977 | 0.973 | 0.972 | 0.976 | 1.23 | 0.834 | 0.892 | 0.754 | 0.988 | 0.875 | – | 0.582 | 0.595 | 0.458 | 0.71 |
| NCI-H1355 | 0.35 | 0.421 | 0.32 | 0.339 | 0.373 | 1.03 | 0.945 | 1.04 | 0.956 | 1.1 | 0.905 | 0.915 | 0.778 | 0.902 | 0.965 | 0.753 | 0.666 | 0.599 | 0.605 | 0.599 |
| NCI-H1755 | 0.759 | 0.715 | 0.704 | 0.726 | 0.709 | 0.946 | 0.931 | 0.788 | 0.888 | 0.935 | 0.98 | 1.03 | 1.02 | 1.06 | 1.04 | 0.935 | 0.991 | 0.905 | 0.802 | 0.969 |
| SK-LU-1 | 0.64 | 0.726 | 0.618 | 0.582 | 0.598 | 0.904 | 0.959 | 0.929 | 0.849 | 1.1 | 1.08 | 1.13 | 1.1 | 1.1 | 1.1 | 1.08 | 1.16 | 1.26 | 0.769 | 0.832 |
| NCI-H2126 | 0.617 | 0.595 | 0.571 | 0.583 | 0.562 | 1.27 | 0.967 | 1.09 | 1.21 | 1.26 | 0.799 | 0.772 | 0.669 | 0.768 | 0.786 | 0.696 | 0.695 | 0.68 | 0.661 | 0.682 |
| NCI-H1793 | 0.595 | 0.55 | 0.478 | 0.413 | 0.559 | 0.851 | 0.597 | 0.764 | 0.65 | 0.687 | 0.684 | 0.927 | 0.691 | 0.742 | 0.66 | 0.896 | 0.7 | 0.812 | 0.787 | 0.964 |
| HOP-62 | 0.212 | 0.247 | 0.202 | 0.19 | 0.276 | 1.07 | 1.14 | 1.06 | 1.09 | 1.3 | 0.914 | 0.831 | – | 1.19 | 0.747 | 1.01 | 0.979 | 1.18 | 0.781 | 1.07 |
| NCI-H1395 | 0.795 | 0.681 | 0.622 | 0.746 | 0.751 | 0.97 | 1.03 | 0.982 | 0.939 | 0.918 | 1 | 1.26 | 1.12 | 1.03 | 1.29 | – | 1.05 | 1.03 | 0.638 | 0.974 |
| NCI-H2347 | 0.699 | 0.543 | 0.585 | 0.578 | 0.686 | 0.954 | 0.747 | 1.12 | 1.11 | 0.799 | 1.14 | 1.08 | 1.07 | 1.1 | 0.974 | 0.967 | 0.913 | 0.907 | 0.635 | 0.95 |
| HCC-15 | 0.637 | 0.635 | 0.681 | 0.615 | 0.603 | 1.1 | 1.11 | 0.958 | 0.99 | 0.999 | 0.886 | 0.945 | 0.97 | 0.92 | 0.889 | 0.937 | 0.977 | 0.868 | 0.593 | 0.894 |
| PC-14 | 0.239 | 0.219 | 0.231 | 0.203 | 0.194 | 0.92 | 0.819 | 0.989 | 0.861 | 1.03 | 0.995 | 1.01 | 0.925 | 0.985 | 1.04 | 0.975 | 0.979 | 0.941 | 0.764 | 0.743 |
| NCI-H2085 | 0.578 | 0.54 | 0.614 | 0.551 | 0.561 | 0.979 | 1.05 | 0.884 | 0.9 | 1.07 | 0.905 | 1.08 | 1.02 | 0.983 | 0.967 | 0.829 | 0.934 | 0.768 | 0.797 | 0.859 |
| HCC-827 | 0.321 | 0.216 | 0.358 | 0.32 | 0.333 | 1.06 | 0.984 | 1.04 | 1.01 | 1.13 | 0.999 | 1.02 | 0.909 | 0.957 | 0.982 | 0.942 | 0.96 | 0.91 | 0.589 | 0.841 |
| H3255 | 0.736 | – | 0.559 | 0.508 | 0.535 | 1.03 | 0.61 | 0.848 | 0.859 | 0.801 | 0.63 | 0.71 | 0.713 | 0.61 | 0.703 | 1.02 | 0.969 | 0.919 | 0.672 | 0.962 |
| LOU-NH91 | 0.852 | 0.645 | 0.813 | 0.749 | 0.851 | 0.917 | 0.659 | 0.981 | 0.962 | 0.957 | 0.631 | 0.702 | 0.7 | 0.717 | 0.71 | 0.789 | 0.849 | 0.828 | 0.753 | 0.846 |
| LK-2 | 0.262 | 0.245 | 0.298 | 0.347 | 0.222 | 1.31 | 1.03 | 1.06 | 1.1 | 1.42 | 1.1 | 1.22 | 1.27 | 1.15 | 1.31 | 0.608 | 0.728 | 0.544 | – | 0.646 |
| EPLC-272H | 0.411 | 0.345 | 0.338 | 0.351 | 0.377 | 0.639 | 0.745 | 0.579 | 0.735 | 0.637 | – | 0.991 | 0.951 | 0.977 | 1.07 | – | 1.07 | 1.21 | 0.995 | 1.11 |
| NCI-H441 | 0.233 | 0.217 | 0.253 | 0.21 | 0.27 | 0.989 | 0.93 | 0.872 | 1.13 | 0.95 | 0.86 | 0.74 | 0.756 | 0.467 | 0.976 | 0.52 | 0.528 | 0.613 | 0.478 | 0.662 |
| NCI-H23 | 0.327 | 0.311 | 0.346 | 0.299 | 0.325 | 1.06 | 0.948 | 1.06 | 0.955 | 1.02 | 0.725 | 0.745 | 0.814 | 0.758 | 0.806 | 0.543 | 0.546 | 0.567 | 0.443 | 0.515 |
| NCI-H647 | 0.262 | 0.378 | 0.457 | 0.348 | 0.495 | 1.26 | 1.16 | 1.03 | 1.23 | 1.56 | 1.1 | 1.22 | 1.25 | 1.13 | 1.08 | 1.27 | 1.2 | 1.02 | – | 0.748 |
| LXF-289 | 0.388 | 0.398 | 0.353 | 0.362 | 0.395 | 1.07 | 0.902 | 0.913 | 0.983 | 1.05 | 1.09 | 1.05 | 1.02 | 1.06 | 1.05 | 0.985 | 0.967 | 0.959 | 0.869 | 0.961 |
| NCI-H596 | 1.15 | 0.976 | 1.32 | 0.935 | 1.07 | 0.504 | 0.861 | 0.803 | 0.873 | 0.818 | 0.574 | 0.612 | 0.524 | 0.537 | 0.392 | 1.04 | 1.2 | 1.21 | 1.11 | 1.16 |
